Results as given in PMC2949462 (Bioorganic & medicinal chemistry, 2010).
Entries after “also recorded” stand apart in the source; their conditions may differ.

Tests used:
[1] = test system: HIV-1 IIIB; assay: HIV-1 infectivity assay against non-drug-resistant strain in H9 lymphocytes; type: cell-based; conditions: for EC50: concentration that inhibits HIV-1IIIB replication by 50%: H9 lymphocytes, p24, day 6 PI; for anti-HIV activity in words: HIV-1 replication in H9 lymphocytes
[2] = test system: uninfected H9 cells; assay: Toxicity to mock-infected H9 cells; type: cell-based; conditions: human, mock-infected (uninfected) H9 T-cells

Row | Compound | EC50: concentration that inhibits HIV-1IIIB replication by 50% [1] | IC50 at 6 days [2] | anti-HIV activity in words [1]
1 | Cc1cc(=O)oc2c3c(ccc12)[S+]([O-])[C@@H](C)C(OC(=O)C12CCC(C)(C(=O)O1)C2(C)C)C3OC(=O)C12CCC(C)(C(=O)O1)C2(C)C (stereo partly drawn) [9a+9b, 1′-Sulfoxide-2′,4-dimethyl-3′,4′-di-O-(−)-camphanoyl-(+)-cis-khellactone] | no suppression |  | 
2 | Cc1cc(=O)oc2c3c(ccc12)OC(C)(C)[C@H](OC(=O)[C@]12CC[C@](C)(C(=O)O1)C2(C)C)[C@@H]3OC(=O)[C@]12CC[C@](C)(C(=O)O1)C2(C)C [Compound 2] |  | > 39.2 µM | 
3 | Cc1cc(=O)oc2c3c(ccc12)O[C@H](C)[C@@H](OC(=O)[C@]12CC[C@](C)(C(=O)O1)C2(C)C)[C@H]3OC(=O)[C@]12CC[C@](C)(C(=O)O1)C2(C)C [Compound 5b, (2′R,3′R,4′S)-2′,4-Dimethyl-3′,4′-di-O-(−)-camphanoyl-(+)-cis-khellactone] |  |  | low potency
4 | Cc1cc(=O)oc2c3c(ccc12)O[C@H](C)[C@H](OC(=O)[C@]12CC[C@](C)(C(=O)O1)C2(C)C)[C@@H]3OC(=O)[C@]12CC[C@](C)(C(=O)O1)C2(C)C [Compound 6, (2′R,3′S,4′R)-2′,4-Dimethyl-3′,4′-di-O-(−)-camphanoyl-(+)-cis-khellactone] | no suppression |  | inactive at the test concentrations; also recorded: much weaker inhibitory activity
5 | Cc1cc(=O)oc2c3c(ccc12)S[C@H](C)[C@@H](OC(=O)[C@]12CC[C@](C)(C(=O)O1)C2(C)C)[C@H]3OC(=O)[C@]12CC[C@](C)(C(=O)O1)C2(C)C [Compound 7b, (2′R,3′S,4′S) -1′-Thia-2′,4-dimethyl-3′,4′-di-O-(−)-camphanoyl-(+)-cis-khellactone] | no suppression |  | inactivity
6 | Cc1cc(=O)oc2c3c(ccc12)S[C@H](C)[C@H](OC(=O)[C@]12CC[C@](C)(C(=O)O1)C2(C)C)[C@@H]3OC(=O)[C@]12CC[C@](C)(C(=O)O1)C2(C)C [Compound 8, (2′R,3′R,4′R)-1′-Thia-2′,4-Dimethyl-3′,4′-di-O-(−)-camphanoyl-(+)-cis-khellactone] |  |  | much weaker inhibitory activity
7 | Cc1cc(=O)oc2c3c(ccc12)S(=O)(=O)[C@H](C)[C@H](OC(=O)[C@]12CC[C@](C)(C(=O)O1)C2(C)C)[C@@H]3OC(=O)[C@]12CC[C@](C)(C(=O)O1)C2(C)C [Compound 12, (8R,9R,10R)-1′-Sulfone-2′,4-dimethyl-3′,4′-di-O-(−)-camphanoyl-(+)-cis-khellactone] | no suppression |  | 
